The target of one assay is T1, HMG-CoA-Reduktase (Rattus norvegicus, UniProt P51639).
T1 construct: solubilisierten Enzympräparationen aus Ratten-Lebermikrosomen; from tissue; host or cells: rat liver microsomes (cholestyramine-induced rats)
T1 sequence (P51639 1-887): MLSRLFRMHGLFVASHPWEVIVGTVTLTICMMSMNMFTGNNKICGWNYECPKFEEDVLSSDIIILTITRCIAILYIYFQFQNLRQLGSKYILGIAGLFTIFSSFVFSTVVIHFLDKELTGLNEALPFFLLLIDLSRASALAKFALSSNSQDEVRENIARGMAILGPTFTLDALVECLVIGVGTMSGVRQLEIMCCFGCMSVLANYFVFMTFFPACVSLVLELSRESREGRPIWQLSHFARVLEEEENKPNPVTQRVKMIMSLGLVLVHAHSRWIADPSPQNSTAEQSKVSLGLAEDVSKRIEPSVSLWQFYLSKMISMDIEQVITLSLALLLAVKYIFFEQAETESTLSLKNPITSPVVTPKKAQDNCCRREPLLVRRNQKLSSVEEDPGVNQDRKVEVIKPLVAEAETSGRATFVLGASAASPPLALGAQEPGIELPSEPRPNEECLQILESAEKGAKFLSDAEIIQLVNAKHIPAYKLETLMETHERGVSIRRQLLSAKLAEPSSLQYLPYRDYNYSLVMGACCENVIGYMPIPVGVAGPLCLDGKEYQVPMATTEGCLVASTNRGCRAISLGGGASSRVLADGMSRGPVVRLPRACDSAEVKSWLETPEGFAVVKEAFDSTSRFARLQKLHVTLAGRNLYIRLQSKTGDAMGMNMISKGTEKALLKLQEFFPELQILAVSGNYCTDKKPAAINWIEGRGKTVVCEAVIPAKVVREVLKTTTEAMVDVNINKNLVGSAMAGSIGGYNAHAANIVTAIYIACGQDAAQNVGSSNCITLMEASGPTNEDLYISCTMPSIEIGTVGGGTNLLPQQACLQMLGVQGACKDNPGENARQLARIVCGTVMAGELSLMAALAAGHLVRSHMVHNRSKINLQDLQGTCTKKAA
In words: Inhibition of HMG-CoA reductase activity in solubilised enzyme preparations from rat liver microsomes. Type of assay: biochemical, Ratten. Conditions: sodium salts of the dihydroxycarboxylic acids of formula II; substrate (S,R) 14C-HMG-CoA; mean of 3 parallel samples; read-out: IC₅₀. An excerpt:
Die HMG-CoA-Reduktase-Aktivität der Natriumsalze der erfindungsgemäßen Verbindungen der Formel II wurde in zwei Testsystemen bestimmt 1) Inhibierung der HMG-CoA-Reduktase-Aktivität an solubilisierten Enzympräparationen aus Ratten-Lebermikrosomen Die HMG-CoA-Reduktase-Aktivität wurde an solubilisierten Enzympräparationen aus Lebermikrosomen von Ratten gemessen, die nach Umstellung im Tag-Nacht-Rhythmus mit Cholestyramin (®Cuemid) induziert wurden. Als Substrat diente (S,R) ¹⁴C-HMG-CoA, die Konzentration von NADPH wurde während der Inkubation durch ein regenerierendes System aufrechterhalten. Die Abtrennung von ¹⁴C-Mevalonat von Substrat und anderen Produkten (z.B. ¹⁴C-HMG) erfolgte über Säulenelution, wobei das Elutionsprofil jeder Einzelprobe ermittelt wurde. Auf die ständige Mitführung von ³H-Mevalonat wurde verzichtet, weil es sich bei der Bestimmung um die Relativangabe der Hemmwirkung handelt. In einer Versuchsreiche wurden jeweils die enzymfreie Kontrolle, der enzymhaltige Normalansatz (= 100 %) und solche mit Präparatezusätzen zusammen behandelt. Jeder Einzelwert wurde als Mittelwert aus 3 Parallelproben gebildet. Die Signifikanz der Mittelwertsunterschiede zwischen präparatefreien und präparatehaltigen Proben wurde nach dem t-Test beurteilt. Nach der oben beschriebenen Methode wurden von den erfindungsgemäßen Verbindungen z.B. folgende Hemmwerte auf die HMG-CoA-Reduktase ermittelt (IC₅₀- (mol/l); molare Konzentration der Verbindung pro Liter, die für eine 50 %ige Hemmung erforderlich ist) Tabelle 1
(Liver microsomes are vesicles of endoplasmic reticulum, rich in cytochrome P450 enzymes.)

Assay [1] deals with T2, HMG-CoA-Reduktase in HEP G2-Zellkulturen (Homo sapiens, UniProt P04035).
T2 sequence (P04035 1-888): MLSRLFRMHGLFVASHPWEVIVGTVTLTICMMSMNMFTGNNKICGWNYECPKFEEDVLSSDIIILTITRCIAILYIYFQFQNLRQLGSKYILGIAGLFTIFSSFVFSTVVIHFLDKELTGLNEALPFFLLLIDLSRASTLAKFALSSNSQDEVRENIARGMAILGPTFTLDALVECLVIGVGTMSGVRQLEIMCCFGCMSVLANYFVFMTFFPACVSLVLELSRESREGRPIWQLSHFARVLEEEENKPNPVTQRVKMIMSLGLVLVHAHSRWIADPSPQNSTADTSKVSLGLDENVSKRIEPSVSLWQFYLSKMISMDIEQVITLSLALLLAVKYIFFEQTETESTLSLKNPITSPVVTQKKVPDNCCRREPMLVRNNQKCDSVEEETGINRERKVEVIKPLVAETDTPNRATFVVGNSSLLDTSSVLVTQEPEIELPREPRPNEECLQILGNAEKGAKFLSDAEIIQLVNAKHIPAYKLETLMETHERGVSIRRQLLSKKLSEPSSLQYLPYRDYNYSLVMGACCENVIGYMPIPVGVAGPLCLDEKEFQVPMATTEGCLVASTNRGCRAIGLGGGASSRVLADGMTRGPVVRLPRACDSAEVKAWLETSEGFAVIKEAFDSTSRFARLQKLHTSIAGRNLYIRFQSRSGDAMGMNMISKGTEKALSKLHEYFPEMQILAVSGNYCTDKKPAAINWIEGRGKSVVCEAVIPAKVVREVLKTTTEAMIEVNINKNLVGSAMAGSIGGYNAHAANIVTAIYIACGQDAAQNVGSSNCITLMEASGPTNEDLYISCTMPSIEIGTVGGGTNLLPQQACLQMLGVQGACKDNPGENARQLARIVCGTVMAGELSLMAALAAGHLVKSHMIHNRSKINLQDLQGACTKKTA
In words: Inhibition of 14C-sodium acetate incorporation into cholesterol in HEP G2 cell cultures. Format: cell-based. Conditions: for relative Wirkstärke: Mevinolin-Natrium = 100; for IC70: HepG2, 3 h, read-out: IC₇₀. An excerpt: 2) Supprimierung bzw. Inhibierung der HMG-CoA-Reduktase in HEP G2-Zellkulturen (einer Human-Hepatoma-Zell-Linie) Es erfolgte eine Bestimmung der Inhibition des Einbaus von ¹⁴C-Natriumacetat in Cholesterin. Monolayers von HEP G2-Zellen in RPMJ 1640 Medium mit 10 % von Lipiden befreitem fötalem Kälberserum wurden 1 Stunde mit verschiedenen Konzentrationen der Natriumsalze der Dihydroxycarbonsäuren der Formel II präinkubiert. Nach Zugabe von ¹⁴C-markiertem Natriumacetat wurde die Inkubation 3 Std. fortgesetzt. Tritium-markiertes Cholesterin wurde als interner Standard zugefügt und ein Aliquot der Zellen alkalisch verseift. Die Lipide wurden mit Chloroform/Methanol 2:1 extrahiert. Nach Zugabe von Carrier-Cholesterin wurde das Lipidgemisch präparativ auf DC-Platten mit Chloroform/Aceton 9:1 getrennt. Die Cholesterin-Zone wurde durch Anfärben mit Joddampf sichtbar gemacht, außerdem mit einem DC-Radioscanner detektiert und dann abgeschabt. Die Menge ¹⁴C-Cholesterin wurde szintigraphisch bestimmt. In einem anderen Aliquot der Zell-Monolayers wurde (zur Berechnung der ¹⁴C-Cholesterinbiosynthese pro mg Zell-Protein) das Zellprotein gemessen. Dieselbe Prozedur wurde mit Zellen der gleichen Kultur ohne Präinkubation mit einer Testverbindung durchgeführt (sogenannte "Lösungsmittelkontrolle"). Die Wirkstärke der Testverbindungen wurde bestimmt durch Vergleich des biosynthetisierten ¹⁴C-Cholesterins in Testläufen und bei "Lösungsmittelkontrolle". Die Wirkstärke wurde auf der Basis von Mevinolin-Natriumsalz als externer Standard berechnet. […] Die gemessenen IC's für Testverbindungen (Natriumsalze der Dihydroxycarbonsäuren der Formel II) (Tab. 2) wurden um die Abweichung von Mevinolin-Natrium von seinem Durchschnittswert korrigiert. Mevinolin-Natrium wurde eine relative Wirkstärke von 100 zugewiesen.

The mark [2] stands for this setting: value outside parentheses (matches ratio of IC50 values).

Like-named read-outs stand apart in the source and are kept apart here.

For `CC(C)c1cc(-c2ccccc2)cc(-c2ccc(F)cc2)c1OC[C@@H](O)C[C@@H](O)CC(=O)O` [Beispiel 8d, 3(R),5(S)-Dihydroxy-6-[2-isopropyl-4-phenyl-6-(4-fluorphenyl)-phenoxy-]-hexansäure-Natriumsalz], the IC50 on HMG-CoA-Reduktase worked out at 23 nM. Further, the “relative Wirkstärke” value in assay [1] (setting [2]) was determined as 53. Consider `CCC(C)C(=O)OC1CC(C)C=C2C=CC(C)C(CCC(O)CC(O)CC(=O)O)C21` (centres unmarked) [Mevinolin-Natriumsalz, reference compound], for which the IC70 in assay [1] (mean value over different cell batches, external standard) was 0.15 µM.

On to `CC(C)c1cc(C2CCCCC2)cc(-c2ccc(F)cc2)c1OC[C@@H](O)C[C@@H](O)CC(=O)O` [Beispiel 8e, 3(R),5(S)-Dihydroxy-6-[2-isopropyl-4-cyclohexyl-6-(4-fluorphenyl)-phenoxy]-hexansäure-Natriumsalz], for which the IC50 on HMG-CoA-Reduktase worked out at 5.2 nM. As for `CC(C)c1cc(-c2ccc(F)cc2)c(OC[C@@H](O)C[C@@H](O)CC(=O)O)c(C(C)C)c1` [Beispiel 8a, 3(R),5(S)-Dihydroxy-6-[2-(4-fluorphenyl)-4,6-diisopropylphenoxy]-hexansäure-Natriumsalz], the IC50 at HMG-CoA-Reduktase was 2.3 nM. Besides, the IC70 in assay [1] (concentration for 70 % inhibition, sodium salts, corrected for the deviation of Mevinolin-Natrium from its mean value) was determined as 0.07 µM. Also, the figures for the “relative Wirkstärke” value in assay [1] (value in parentheses (matches ratio of IC70 values)) and in assay [1] (setting [2]) were 214 and 185, respectively. Consider `CC(C)c1cc(-c2ccc(F)cc2)cc(-c2ccc(F)cc2)c1SC[C@@H](O)C[C@@H](O)CC(=O)O` [Beispiel 8g, 3(R),5(S)-Dihydroxy-6-[2-isopropyl-4,6-bis-(4-fluorphenyl)-thiophenoxy]-hexansäure-Natriumsalz], for which the IC50 at HMG-CoA-Reduktase amounted to 36 nM. For `CC(C)c1cc(-c2ccc(F)cc2)c(SC[C@@H](O)C[C@@H](O)CC(=O)O)c(C(C)C)c1` [Beispiel 8f, 3(R),5(S)-Dihydroxy-6-[2-(4-fluorphenyl)-4,6-diisopropylthiophenoxy]-hexansäure-Natriumsalz], on HMG-CoA-Reduktase, the IC50 came to 4.8 nM.

In the case of `CC(C)c1cc(-c2ccc(F)cc2)cc(-c2ccc(F)cc2)c1OC[C@@H](O)C[C@@H](O)CC(=O)O` [Beispiel 8c, 3(R),5(S)-Dihydroxy-6-[2-isopropyl-4,6-bis-(4-fluorphenyl)-phenoxy]-hexansäure-Natriumsalz], at HMG-CoA-Reduktase, the IC50 came out at 17 nM. Besides, the “relative Wirkstärke” value in assay [1] (setting [2]) was determined as 56. In the same order, the values of `CC(C)c1cc(C(C)(C)C)cc(-c2ccc(F)cc2)c1OC[C@@H](O)C[C@@H](O)CC(=O)O` [Beispiel 8b, 3(R),5(S)-Dihydroxy-6-[2-isopropyl-4-tert.-butyl-6-(4-fluorphenyl)-phenoxy]-hexansäure-Natriumsalz] are above 100 nM and below 1.

(Values after patent publication EP0341681B1, “6-Phenoxymethyl-4-hydroxytetrahydropyran-2-ones and 6-thiophenoxymethyl-4-hydroxytetrahydropyran-2-ones, the corresponding dihydrocarboxylic-acid derivatives, salts and esters, process for preparing these compounds, their use as medicines, pharmaceutical compositions and phenols and thiophenols” (HOECHST AKTIENGESELLSCHAFT, priority 1988, dated 1989).)
